Structures can show the parent of a compound that is named as a salt. Where two headings read alike, the source gives them in different places.
Legend:
[1] = Solubility in N-methyl pyrrolidone; format: physicochemical; conditions: for Behaviour of heated N-methyl pyrrolidone solution on cooling: significant heating needed
Source text: We have examined the quantity in ml of N-methyl-pyrrolidone which is necessary to dissolve 0.1 gram of each respective compound.

[2] = Spontaneous gel-formation with solvents / with N-methyl-pyrrolidone / mixed gels; format: physicochemical
Source text: We have studies spontaneous gel-formation with various solvents on the one hand and various pharmaceutical active ingredients on the other. The following solvents are used: methanol, ethanol, isopropanol, n-butanol, isobutanol, dichloromethane, chloroform, carbon tetrachloride, ethyl acetate, acetonitrile, n-hexane, petrol, benzene, toluene, petrolether, ether, dimethyl formamide, dimethyl sulfoxide, isopropyl myristate.
Furtheron gel-formation has been studied between N-methyl-pyrrolidone and further pharmaceutical active ingredients. The following active ingredients are used: gentamycin, doxycyclin, oxolinic acid, nalidixic acid, drotaverin, theophyllin, acetyl salicylic acid, papaverin, indomethacin.
We have studied furtheron the possibility of the preparation of mixed gels comprising two active ingredients, including antibiotics other then primycin (e.g. gentamicin, doxycyclin, oxytetracyclin, chloramphenicol etc.).

[3] = system: acne; conditions: human, in vivo
[4] = system: gram-positive bacteria; conditions: cited from earlier work

Molecule | Required amount of N-methyl pyrrolidone necessary to dissolve 0.1 g ([1]; (A) Room Temperature) | Required amount of N-methyl pyrrolidone necessary to dissolve 0.1 g ([1]; (B) Under Heating) | Gel formation with N-methyl-pyrrolidone [2] | other results
CCCSc1ccc2nc(NC(=O)OC)[nH]c2c1 [Albendazole] | 1.5 milliliters | 1.0 milliliters |  | 
CC(=O)OCC(=O)[C@@]1(O)CC[C@H]2[C@@H]3CCC4=CC(=O)CC[C@]4(C)[C@H]3[C@@H](O)C[C@@]21C [Hydrocortisone-Acetate] | 1.0 milliliters | 0.2 milliliters |  | 
C[C@@H]1[C@H](O)[C@@H](C)/C=C/C=C/CC/C=C/C=C/C=C/C=C/C(O[C@H]2O[C@H](C)[C@@H](O)[C@H](N)[C@@H]2O)CC2O[C@](O)(CC(O)C(O)CCC(O)CC(O)CC(O)CC(=O)O[C@H]1C)CC(O)C2C(=O)O (stereo partly drawn) [Nystatin] | 5.0 milliliters | 2.0 milliliters |  | 
[H]/N=C(/N)N[C@H]1[C@H](O)[C@@H](O)[C@H](O[C@@H]2O[C@@H](C)[C@](O)(C=O)[C@H]2O[C@@H]2O[C@@H](CO)[C@H](O)[C@@H](O)[C@@H]2NC)[C@@H](N/C(N)=N\[H])[C@@H]1O [Streptomycin Sulfate] | 20.0 milliliters | does not dissolve |  | 
CC(=O)Oc1ccccc1C(=O)O [acetyl salicylic acid] |  |  | None of the above active ingredients form a stable transparent gel | 
C[C@H]1c2cccc(O)c2C(O)=C2C(=O)[C@]3(O)C(O)=C(C(N)=O)C(=O)[C@@H](N(C)C)[C@@H]3[C@@H](O)[C@@H]21 [doxycyclin] | 10.0 milliliters | 2.0 milliliters | None of the above active ingredients form a stable transparent gel | 
CCOc1ccc(/C=C2\NCCc3cc(OCC)c(OCC)cc32)cc1OCC [drotaverin] |  |  | None of the above active ingredients form a stable transparent gel | 
COc1ccc2c(c1)c(CC(=O)O)c(C)n2C(=O)c1ccc(Cl)cc1 [indomethacin] |  |  | None of the above active ingredients form a stable transparent gel | 
CCn1cc(C(=O)O)c(=O)c2ccc(C)nc21 [nalidixic acid] | does not dissolve | 6.0 milliliters | None of the above active ingredients form a stable transparent gel | Behaviour of heated N-methyl pyrrolidone solution on cooling [1]: precipitates after cooling
CCn1cc(C(=O)O)c(=O)c2cc3c(cc21)OCO3 [oxolinic acid] | does not dissolve | 8.0 milliliters | None of the above active ingredients form a stable transparent gel | Behaviour of heated N-methyl pyrrolidone solution on cooling [1]: precipitates after
COc1ccc(Cc2nccc3cc(OC)c(OC)cc23)cc1OC [papaverin] |  |  | None of the above active ingredients form a stable transparent gel | 
Cn1c(=O)c2[nH]cnc2n(C)c1=O [theophyllin] |  |  | None of the above active ingredients form a stable transparent gel | 
[5-(18-(α-D-arabinofuranosyloxy)-2-butyl-3,7,11,15,19,21,23,25,27-nonahydroxy-4,16,32,34-tetramethyl-1-oxo-oxacyclohexatriaconta-16,32-dien-35- yl)-4-hydroxyhexyl]-guanidinium-sulfate [Primycin] | does not dissolve | 0.5 milliliters | spontaneous gel-formation resulting in the formation of a stable transparent gel | Solubility in N-methyl-pyrrolidone (in words) [1]: not easily dissolved; Temperature-dependance of the solubility [1]: more than two orders of magnitude; Absorption into the blood stream [3]: not to be absorbed by the blood stream; Skin irritation on topical application [3]: severe irritation to the skin; Toxicity upon entry into the bloodstream [3]: significantly toxic; Effect in combination with other antibiotics ([4]; Hungarian patent No. 158,241): synergistic effect; Antibacterial spectrum ([4]; prior art): particularly effective against gram-positive bacteria but active against polyresistant human pathogenic strains as well; Resistance development ([4]; prior art): No resistance has developed; Precipitation from 1% solutions (1% solutions prepared under heating, on cooling): primycin precipitated upon cooling; Solubility, dissolved material (methanol): 2 µg/mL; Solubility, dissolved material (propylene glycol): 5 µg/mL; Solubility, dissolved material (water): 0.05 µg/mL; Pure gel formation with other solvents ([2]; ethanol amine, diethanol amine, triethanol amine, dimethyl formamide, dimethyl sulfoxide, 5-30%): pure gel is formed neither in the cold nor in the warm; Stable gel formation with solvents ([2]; methanol, ethanol, isopropanol, n-butanol, isobutanol, dichloromethane, chloroform, carbon tetrachloride, ethyl acetate, acetonitrile, n-hexane, petrol, benzene, toluene, petrolether, ether, dimethyl formamide, dimethyl sulfoxide, isopropyl myristate): None of the above solvents forms a stable gel with primycin
gentamycin |  |  | None of the above active ingredients form a stable transparent gel | 

— US5064815A, “Primycin-containing colloidal basic gel” (Chinoin Gyogyszer es Vegyeszeti Termekek Gyara RT., priority 1985, dated 1991)
